# According to PubChem BioAssay (NCI):
#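 A five-concentration, 48-hour dose response in 96-well plates underlies each endpoint, interpolated linearly between surrounding concentrations. GI50 marks 50% less growth. Definition used: TGI = concentration required for complete inhibition of growth.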
# What was measured:
# Assay in all cases: NCI tumour cell line growth inhibition, 48 h
# 786-0 renal = system: 786-0 renal
# HL-60(TB) leukemia = system: HL-60(TB) leukemia
# DU-145 prostate = system: DU-145 prostate
# SF-268 CNS = system: SF-268 CNS
# KM12 colon = system: KM12 colon
# SW-620 colon = system: SW-620 colon
# RXF 393 renal = system: RXF 393 renal
# OVCAR-5 ovarian = system: OVCAR-5 ovarian
# UACC-62 melanoma = system: UACC-62 melanoma
# IGROV1 ovarian = system: IGROV1 ovarian
# U251 CNS = system: U251 CNS
# UACC-257 melanoma = system: UACC-257 melanoma
# MALME-3M melanoma = system: MALME-3M melanoma
# OVCAR-4 ovarian = system: OVCAR-4 ovarian
# NCI-H226 lung = system: NCI-H226 lung
# HCC-2998 colon = system: HCC-2998 colon
# MCF7 breast = system: MCF7 breast
# SK-MEL-5 melanoma = system: SK-MEL-5 melanoma
# SK-OV-3 ovarian = system: SK-OV-3 ovarian
# BT-549 breast = system: BT-549 breast
# CAKI-1 renal = system: CAKI-1 renal
# COLO 205 colon = system: COLO 205 colon
# RPMI-8226 leukemia = system: RPMI-8226 leukemia
# SNB-75 CNS = system: SNB-75 CNS
# HT29 colon = system: HT29 colon
# MOLT-4 leukemia = system: MOLT-4 leukemia
# HS 578T breast = system: HS 578T breast
# MDA-MB-231 breast = system: MDA-MB-231 breast
# K-562 leukemia = system: K-562 leukemia
# LOX IMVI melanoma = system: LOX IMVI melanoma
# NCI-H23 lung = system: NCI-H23 lung
# NCI-H460 lung = system: NCI-H460 lung
# NCI/ADR-RES ovarian = system: NCI/ADR-RES ovarian
# SNB-19 CNS = system: SNB-19 CNS
# HOP-62 NSCLC = system: HOP-62 NSCLC
# OVCAR-8 ovarian = system: OVCAR-8 ovarian
# HCT-15 colon = system: HCT-15 colon
# SN12C renal = system: SN12C renal
# ACHN renal = system: ACHN renal
# A549 NSCLC = system: A549 NSCLC
# EKVX NSCLC = system: EKVX NSCLC
# SR leukemia = system: SR leukemia
# SF-539 CNS = system: SF-539 CNS
# SK-MEL-2 melanoma = system: SK-MEL-2 melanoma
# SF-295 CNS = system: SF-295 CNS
# TK-10 renal = system: TK-10 renal
# HOP-92 NSCLC = system: HOP-92 NSCLC
# A498 renal = system: A498 renal
# PC-3 prostate = system: PC-3 prostate
# NCI-H522 lung = system: NCI-H522 lung
# HCT-116 colon = system: HCT-116 colon
# M14 melanoma = system: M14 melanoma
# MDA-MB-435 = system: MDA-MB-435
# OVCAR-3 ovarian = system: OVCAR-3 ovarian
# CCRF-CEM leukemia = system: CCRF-CEM leukemia
# T-47D breast = system: T-47D breast
# SK-MEL-28 melanoma = system: SK-MEL-28 melanoma
# UO-31 renal = system: UO-31 renal
smiles,measurement,setting,value
COC(=O)Cc1ccc2c(c1)Sc1ccc(CC(=O)OC)cc1N2C,TGI,786-0 renal,> 100 µM
same,TGI,HL-60(TB) leukemia,> 93.3 µM
same,TGI,DU-145 prostate,> 100 µM
same,TGI,SF-268 CNS,> 100 µM
same,TGI,KM12 colon,> 100 µM
same,TGI,SW-620 colon,> 100 µM
same,TGI,RXF 393 renal,> 100 µM
same,TGI,OVCAR-5 ovarian,> 100 µM
same,TGI,UACC-62 melanoma,> 100 µM
same,TGI,IGROV1 ovarian,> 100 µM
same,TGI,U251 CNS,> 100 µM
same,TGI,UACC-257 melanoma,> 93 µM
same,TGI,MALME-3M melanoma,80.6 µM
same,TGI,OVCAR-4 ovarian,> 100 µM
same,TGI,NCI-H226 lung,> 93.5 µM
same,TGI,HCC-2998 colon,> 100 µM
same,TGI,MCF7 breast,> 63.5 µM
same,TGI,SK-MEL-5 melanoma,26.3 µM
same,TGI,SK-OV-3 ovarian,> 100 µM
same,TGI,BT-549 breast,91.7 µM
same,TGI,CAKI-1 renal,52 µM
same,TGI,COLO 205 colon,53.8 µM
same,TGI,RPMI-8226 leukemia,> 100 µM
same,TGI,SNB-75 CNS,> 93.4 µM
same,TGI,HT29 colon,> 100 µM
same,TGI,MOLT-4 leukemia,> 100 µM
same,TGI,HS 578T breast,> 89.3 µM
same,TGI,MDA-MB-231 breast,> 100 µM
same,TGI,K-562 leukemia,> 100 µM
same,TGI,LOX IMVI melanoma,> 57.1 µM
same,TGI,NCI-H23 lung,> 77.9 µM
same,TGI,NCI-H460 lung,> 100 µM
same,TGI,NCI/ADR-RES ovarian,> 68.3 µM
same,TGI,SNB-19 CNS,> 100 µM
same,TGI,HOP-62 NSCLC,> 100 µM
same,TGI,OVCAR-8 ovarian,> 100 µM
same,TGI,HCT-15 colon,> 92.6 µM
same,TGI,SN12C renal,> 100 µM
same,TGI,ACHN renal,> 100 µM
same,TGI,A549 NSCLC,> 90.3 µM
same,TGI,EKVX NSCLC,> 100 µM
same,TGI,SR leukemia,> 79.1 µM
same,TGI,SF-539 CNS,> 100 µM
same,TGI,SK-MEL-2 melanoma,> 100 µM
same,TGI,SF-295 CNS,> 87.1 µM
same,TGI,TK-10 renal,> 100 µM
same,TGI,HOP-92 NSCLC,> 100 µM
same,TGI,A498 renal,99.6 µM
same,TGI,PC-3 prostate,> 100 µM
same,TGI,NCI-H522 lung,58.1 µM
same,TGI,HCT-116 colon,> 100 µM
same,TGI,M14 melanoma,> 100 µM
same,TGI,MDA-MB-435,> 100 µM
same,TGI,OVCAR-3 ovarian,> 100 µM
same,TGI,CCRF-CEM leukemia,> 95.7 µM
same,TGI,T-47D breast,> 100 µM
same,TGI,SK-MEL-28 melanoma,> 100 µM
same,TGI,UO-31 renal,> 58.5 µM
O=C(Nc1ccc(N2CCNCC2)cc1)c1[nH]ncc1Nc1ncnc2sc3c(c12)CCC3,GI50,786-0 renal,0.254 µM
same,TGI,786-0 renal,1.52 µM
same,GI50,HL-60(TB) leukemia,1.2 µM
same,TGI,HL-60(TB) leukemia,3.28 µM
same,GI50,DU-145 prostate,0.302 µM
same,TGI,DU-145 prostate,1.19 µM
same,GI50,SF-268 CNS,0.89 µM
same,TGI,SF-268 CNS,2.76 µM
same,GI50,KM12 colon,0.219 µM
same,TGI,KM12 colon,1.33 µM
same,GI50,SW-620 colon,0.157 µM
same,TGI,SW-620 colon,0.756 µM
same,GI50,RXF 393 renal,0.394 µM
same,TGI,RXF 393 renal,1.89 µM
same,GI50,OVCAR-5 ovarian,0.33 µM
same,TGI,OVCAR-5 ovarian,1.92 µM
same,GI50,UACC-62 melanoma,1.07 µM
same,TGI,UACC-62 melanoma,2.31 µM
same,GI50,IGROV1 ovarian,0.125 µM
same,TGI,IGROV1 ovarian,1.38 µM
same,GI50,U251 CNS,0.108 µM
same,TGI,U251 CNS,0.244 µM
same,GI50,UACC-257 melanoma,0.478 µM
same,TGI,UACC-257 melanoma,2.43 µM
same,GI50,MALME-3M melanoma,0.121 µM
same,TGI,MALME-3M melanoma,1.77 µM
same,GI50,OVCAR-4 ovarian,0.321 µM
same,TGI,OVCAR-4 ovarian,2.26 µM
same,GI50,NCI-H226 lung,0.548 µM
same,TGI,NCI-H226 lung,2.56 µM
same,GI50,HCC-2998 colon,0.62 µM
same,TGI,HCC-2998 colon,2.19 µM
same,GI50,MCF7 breast,0.166 µM
same,TGI,MCF7 breast,1.3 µM
same,GI50,SK-MEL-5 melanoma,0.381 µM
same,TGI,SK-MEL-5 melanoma,1.79 µM
same,GI50,SK-OV-3 ovarian,0.257 µM
same,TGI,SK-OV-3 ovarian,1.56 µM
same,GI50,BT-549 breast,1.13 µM
same,TGI,BT-549 breast,2.4 µM
same,GI50,CAKI-1 renal,0.148 µM
same,TGI,CAKI-1 renal,1.6 µM
same,GI50,COLO 205 colon,0.124 µM
same,TGI,COLO 205 colon,1.31 µM
same,GI50,RPMI-8226 leukemia,0.67 µM
same,TGI,RPMI-8226 leukemia,3.58 µM
same,GI50,SNB-75 CNS,0.0657 µM
same,TGI,SNB-75 CNS,1.59 µM
same,GI50,MOLT-4 leukemia,0.0835 µM
same,TGI,MOLT-4 leukemia,1.07 µM
same,GI50,HS 578T breast,0.0994 µM
same,TGI,HS 578T breast,2.08 µM
same,GI50,MDA-MB-231 breast,0.333 µM
same,TGI,MDA-MB-231 breast,2.04 µM
same,GI50,K-562 leukemia,0.115 µM
same,TGI,K-562 leukemia,0.472 µM
same,GI50,LOX IMVI melanoma,0.199 µM
same,TGI,LOX IMVI melanoma,1.8 µM
same,GI50,NCI-H23 lung,0.268 µM
same,TGI,NCI-H23 lung,1.85 µM
same,GI50,NCI-H460 lung,0.0845 µM
same,TGI,NCI-H460 lung,0.978 µM
same,GI50,NCI/ADR-RES ovarian,1.48 µM
same,TGI,NCI/ADR-RES ovarian,3.7 µM
same,GI50,SNB-19 CNS,0.274 µM
same,TGI,SNB-19 CNS,1.69 µM
same,GI50,HOP-62 NSCLC,0.621 µM
same,TGI,HOP-62 NSCLC,2.79 µM
same,GI50,OVCAR-8 ovarian,0.36 µM
same,TGI,OVCAR-8 ovarian,1.84 µM
same,GI50,HCT-15 colon,0.224 µM
same,TGI,HCT-15 colon,1.29 µM
same,GI50,SN12C renal,0.412 µM
same,TGI,SN12C renal,1.84 µM
same,GI50,ACHN renal,0.181 µM
same,TGI,ACHN renal,1.16 µM
same,GI50,A549 NSCLC,0.136 µM
same,TGI,A549 NSCLC,0.696 µM
same,GI50,EKVX NSCLC,0.194 µM
same,TGI,EKVX NSCLC,1.94 µM
same,GI50,SR leukemia,0.0638 µM
same,GI50,SF-539 CNS,0.399 µM
same,TGI,SF-539 CNS,1.81 µM
same,GI50,SK-MEL-2 melanoma,1.27 µM
same,TGI,SK-MEL-2 melanoma,3.01 µM
same,GI50,SF-295 CNS,0.359 µM
same,TGI,SF-295 CNS,1.95 µM
same,GI50,TK-10 renal,0.41 µM
same,TGI,TK-10 renal,2.05 µM
same,GI50,HOP-92 NSCLC,0.0302 µM
same,TGI,HOP-92 NSCLC,1.91 µM
same,GI50,A498 renal,0.188 µM
same,TGI,A498 renal,1.58 µM
same,GI50,PC-3 prostate,0.179 µM
same,TGI,PC-3 prostate,1.49 µM
same,GI50,HCT-116 colon,0.109 µM
same,TGI,HCT-116 colon,0.297 µM
same,GI50,M14 melanoma,0.146 µM
same,TGI,M14 melanoma,1.64 µM
same,GI50,MDA-MB-435,0.199 µM
same,TGI,MDA-MB-435,1.77 µM
same,GI50,OVCAR-3 ovarian,0.256 µM
same,TGI,OVCAR-3 ovarian,1.67 µM
same,GI50,CCRF-CEM leukemia,0.222 µM
same,TGI,CCRF-CEM leukemia,1.13 µM
same,GI50,T-47D breast,0.852 µM
same,TGI,T-47D breast,3.53 µM
same,GI50,SK-MEL-28 melanoma,1 µM
same,TGI,SK-MEL-28 melanoma,2.29 µM
same,GI50,UO-31 renal,0.431 µM
same,TGI,UO-31 renal,1.84 µM
